Experimental findings from PubChem BioAssay (NCI) are described below.

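Tested at 5 concentrations; 48 h exposure; 96-well plates; endpoints linearly interpolated, else capped at highest concentration. GI50: concentration for 50% inhibition of growth. Definition used: TGI = concentration required for complete inhibition of growth.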 Where a SMILES comes first, the peptide text is derived from it. The star is where a group is joined. ONb = O=[N+]([O-])c1ccc(CO*)cc1; Boc = CC(C)(C)OC(=O)*

What all share (test): growth of human tumour cells (NCI), 48 h
In experiment [1] the test system is HCC-2998 colon.
In experiment [2] the test system is HCT-116 colon.
For experiment [3], the system named is HL-60(TB) leukemia.
The subject of experiment [4] is NCI-H460 lung.
Experiment [5] deals with SK-MEL-2 melanoma.
Experiment [6] deals with SK-OV-3 ovarian.
Experiment [7] deals with SN12C renal.
For experiment [8], the system named is UACC-257 melanoma.
For experiment [9], the system named is T-47D breast.
Experiment [10] concerns BT-549 breast.

In the case of `Cc1c2cnccc2c(C)c2c1c1ccccc1n2CCCCCCNCc1ccccc1`, the TGI in experiment [1] is 4.86 µM; in experiment [2], 1.92 µM; in [3], 9.35 µM; in experiment [4], 1.86 µM; in experiment [5] it was 4.24 µM; in experiment [6], 7.24 µM. Further, the results for the TGI in experiment [7] and in experiment [8] were 3.27 µM and 3.61 µM, respectively.
`N#CCCC1(CCC#N)CCCCCCCCC(CCC#N)(CCC#N)C(=O)C1=O`: the TGI in [1], in experiment [2], in experiment [3], in experiment [4], in experiment [5] and in [6] was greater than 100 µM each time. Besides, the TGI in [7], in experiment [9] and in [8] was greater than 100 µM each time.
As to `CCCCCCCCCCCCCC[S+](C)C`, the TGI in experiment [1] is 3.49 µM; in experiment [2], greater than 10 µM; in [3], 2.47 µM; in experiment [4], 6.78 µM; in experiment [5] it was 5.13 µM; in experiment [6], greater than 10 µM. The TGI is 3.24 µM in [7], greater than 10 µM in [9] and 6.99 µM in [8].
For the compound `CC(=O)N(O)[C@@H]1CC[C@H](n2cnc3c(N)ncnc32)C1`, the TGI in experiment [10], in [1], in experiment [2], in experiment [4], in [5] and in [6] was greater than 100 µM throughout. Besides, the TGI in [7], in [9] and in [8] was greater than 100 µM throughout.
Take `CN(C)c1nncc2[nH]cnc12`: the TGI in experiment [10], in [2], in experiment [3], in experiment [4], in experiment [5] and in experiment [7] was greater than 100 µM in each case. Further, the TGI in experiment [9] and in [8] was greater than 100 µM throughout.
As for `N#C/C(=C\c1cc(Cl)cc(Cl)c1)c1ccccn1`, the TGI in experiment [10] was 48.7 µM; in experiment [1] it was greater than 100 µM; in experiment [2], greater than 100 µM; in experiment [3], greater than 100 µM; in experiment [4], greater than 100 µM; in [5] it was greater than 100 µM. Also, the TGI in experiment [6], in experiment [7] and in experiment [8] was greater than 100 µM throughout.
As for `CCOc1ccc(/C=N/[N+](C)(C)C)cc1OCC`, the TGI in experiment [10], in experiment [1], in [2], in experiment [6], in experiment [7] and in [9] was greater than 10 µM each time. Besides, the TGI in [8] is greater than 10 µM.
Regarding `CN1CCC(CN2c3ccccc3Sc3ccccc32)CC1`, the TGI in experiment [1] worked out at 25.6 µM; in experiment [2] it was 25.2 µM; in [3], 32.8 µM; in [4] it was 28.5 µM; in [5] it was 31 µM; in experiment [6], 30.2 µM. The TGI in [7] came to 33.9 µM; in [8], 27.8 µM.
For `CSc1ccc(NC(=S)NN(C)C)cc1`, the TGI in experiment [1], in experiment [2], in experiment [3], in [4], in [5] and in experiment [6] was greater than 10 µM each time. Also, the TGI in experiment [7], in experiment [9] and in [8] was greater than 10 µM in each case.
`Cc1cc(NC[C@H](O)[C@H](O)[C@H](O)CO)c(Sc2cc(=O)[nH]c(=O)[nH]2)cc1C`: the TGI in [10], in experiment [1], in experiment [2], in experiment [4], in experiment [5] and in experiment [6] was greater than 62.5 µM each time. In addition, the TGI in experiment [7], in [9] and in [8] was greater than 62.5 µM in each case.
On to `O=C1/C(=C/c2ccccc2O)N=C(c2ccccc2)N1c1nc2ccccc2s1`, for which the TGI in experiment [1] was 35.4 µM; in experiment [2] it was 77.5 µM; in experiment [3] it was 2.97 µM; in experiment [4], 56.4 µM; in experiment [5], 43.4 µM; in [6], greater than 100 µM. Besides, the TGI in [9] is greater than 100 µM; in [8], 79.2 µM.
For the compound `CNC(=O)N(C)COC`, the TGI in [1], in experiment [2], in [3], in experiment [4], in [5] and in experiment [6] was greater than 100 µM in each case. The TGI in experiment [7] and in [8] was greater than 100 µM each time.
Consider `CC(C)CC(NC(=O)OC(C)(C)C)C(=O)NC(CCC(=O)OCc1ccc([N+](=O)[O-])cc1)C(=O)OCc1ccc([N+](=O)[O-])cc1` (stereo not drawn) (Boc-Leu-Glu(ONb)-ONb; configuration not given here), for which the TGI in experiment [1] is 44.6 µM; in [2], greater than 100 µM; in experiment [3] it was 19.1 µM; in experiment [4] it was 56.1 µM; in experiment [5], 78.3 µM; in experiment [7], greater than 100 µM. The TGI in [9] and in experiment [8] was greater than 100 µM throughout.
As for `Fc1ccc2nc3n(c2c1)C(c1c(Cl)cccc1Cl)SC3` (configuration not stated), the TGI in experiment [10], in experiment [1], in experiment [2], in [4], in experiment [5] and in experiment [6] was greater than 100 µM in each case. Further, the TGI in [7], in [9] and in experiment [8] was greater than 100 µM in each case.
For the compound `CCCCCCCCCCCCCC[n+]1ccc2c(C)c3c(c(C)c2c1)c1cc(O)ccc1n3CC`, the GI50 in [10] is 0.339 µM; in experiment [1] it was 0.435 µM; in [3], 0.378 µM; in experiment [4], 0.347 µM; in experiment [5], 0.256 µM; in experiment [6], 0.28 µM. The GI50 in [7] was 0.341 µM. For the same compound, the TGI in experiment [10] turned out to be 1.46 µM; in experiment [1] it was 1.81 µM; in [3] it was 1.95 µM; in experiment [4], 1.59 µM; in [5], 0.774 µM; in experiment [6], 0.849 µM. For the same compound, the TGI in experiment [7] stood at 1.31 µM.
